Measured values as given in EP0908457B1, “3-(1,2-benzisothiazol- and isoxazol-5-Y1)-2,4(1H,3H)-pyrimidinedione or thione and 3-(1,2-benzisothiazol- and isoxazol-5-y1)-4(3H)-pyrimidinone or thione herbicidal agents” (BASF AKTIENGESELLSCHAFT, priority 1997, dated 1999).

Key:
[1] = test system: Sagittaria pygmaea, L.; assay: Preemergence weed control under flooded paddy conditions, SAGPY (Arrowhead (Pygmaea)); format: in vivo; settings: preemergence, flooded paddy, rated 3-4 weeks after treatment
[2] = test system: Monochoria vaginalis, Presl.; assay: Preemergence weed control under flooded paddy conditions, MOOVA (Monochoria); format: in vivo; settings: preemergence, flooded paddy, rated 3-4 weeks after treatment
[3] = test system: Echinochloa oryzoides (Ard.) Fritsch.; assay: Preemergence weed control under flooded paddy conditions, ECHORC (Watergrass (Calif.)); format: in vivo; settings: preemergence, flooded paddy, rated 3-4 weeks after treatment
[4] = test system: Cyperus serotinus, Rottb.; assay: Preemergence weed control under flooded paddy conditions, CYPSE (Flatsedge); format: in vivo; settings: preemergence, rated 3-4 weeks after treatment
[5] = test system: Cyperus iria; assay: Preemergence weed control under flooded paddy conditions, CYPIR (Rice Flatsedge); format: in vivo; settings: preemergence, flooded paddy, rated 3-4 weeks after treatment
[6] = test system: Oryza sativa, (L.) Tebonnet; assay: Rice tolerance to post-transplant applications under flooded paddy conditions (Example 187), ORYSAT (Rice, Tebonnet); settings: rated 3-4 weeks after treatment
Also: meaning of each grade not given here.

SMILES	herbicidal effect rating, SAGPY ([1]; Rate 0.0320 kg/ha)	herbicidal effect rating, SAGPY ([1]; Rate 0.0620 kg/ha)	herbicidal effect rating, SAGPY ([1]; Rate 0.1250 kg/ha)	herbicidal effect rating, SAGPY ([1]; Rate 0.2500 kg/ha)	herbicidal effect rating, MOOVA ([2]; Rate 0.0320 kg/ha)	herbicidal effect rating, MOOVA ([2]; Rate 0.0620 kg/ha)	herbicidal effect rating, MOOVA ([2]; Rate 0.1250 kg/ha)	herbicidal effect rating, MOOVA ([2]; Rate 0.2500 kg/ha)	herbicidal effect rating, ECHORC ([3]; Rate 0.0320 kg/ha)	herbicidal effect rating, ECHORC ([3]; Rate 0.0620 kg/ha)	herbicidal effect rating, ECHORC ([3]; Rate 0.1250 kg/ha)	herbicidal effect rating, ECHORC ([3]; Rate 0.2500 kg/ha)	herbicidal effect rating, CYPSE ([4]; Rate 0.0320 kg/ha)	herbicidal effect rating, CYPSE ([4]; Rate 0.0620 kg/ha)	herbicidal effect rating, CYPSE ([4]; Rate 0.1250 kg/ha)	herbicidal effect rating, CYPSE ([4]; Rate 0.2500 kg/ha)	herbicidal effect rating, CYPIR ([5]; Rate 0.0320 kg/ha)	herbicidal effect rating, CYPIR ([5]; Rate 0.0620 kg/ha)	herbicidal effect rating, CYPIR ([5]; Rate 0.1250 kg/ha)	herbicidal effect rating, CYPIR ([5]; Rate 0.2500 kg/ha)	further results
C=CC(CCCC)OC(=O)COc1ccc(C)cc1-c1nsc2ccc(-n3c(=O)cc(C(F)(F)F)n(C)c3=O)cc12 (stereo not drawn) [Example 520, Acetic acid, {{2-{5-[3,6-dihydro-3-methyl-2,6-dioxo-4-(trifluoromethyl)-1(2H)-pyrimidinyl]-1,2-benzisothiazol-3-yl}-p-tolyl}oxy}-, 1-vinylpentyl ester]	0.0	0.0	0.0	0.0	9.0	9.0	9.0	9.0	6.5	8.0	8.5	9.0	0.0	0.0	0.0	0.0	0.0	0.0	2.0	4.0	herbicidal effect rating ORYSAT ([6]; Rate 0.0320 kg/ha): 2.0; herbicidal effect rating ORYSAT ([6]; Rate 0.0620 kg/ha): 3.5; herbicidal effect rating ORYSAT ([6]; Rate 0.1250 kg/ha): 4.5; herbicidal effect rating ORYSAT ([6]; Rate 0.2500 kg/ha): 3.0
C=CCOCC(CC)(COCC=C)COC(=O)COc1ccc(C)cc1-c1nsc2ccc(-n3c(=O)cc(C(F)(F)F)n(C)c3=O)cc12 [Example 521, Acetic acid, {{2-{5-[3,6-dihydro-3-methyl-2,6-dioxo-4-(trifluoromethyl)-1(2H)-pyrimidinyl]-1,2-benzisothiazol-3-yl}-p-tolyl}oxy}-, 2,2-bis-[(allyloxy)methyl]butyl ester]	0.0	0.0	0.0	0.0	6.0	9.0	9.0	9.0	2.0	2.0	4.0	4.0	0.0	0.0	0.0	0.0	0.0	0.0	0.0	2.0	herbicidal effect rating ORYSAT ([6]; Rate 0.0320 kg/ha): 0.0; herbicidal effect rating ORYSAT ([6]; Rate 0.0620 kg/ha): 0.0; herbicidal effect rating ORYSAT ([6]; Rate 0.1250 kg/ha): 0.0; herbicidal effect rating ORYSAT ([6]; Rate 0.2500 kg/ha): 0.0
CCCCCCC#CCCOC(=O)COc1ccc(C)cc1-c1nsc2ccc(-n3c(=O)cc(C(F)(F)F)n(C)c3=O)cc12 [Example 522, Acetic acid, {{2-{5-[3,6-dihydro-3-methyl-2,6-dioxo-4-(trifluoromethyl)-1(2H)-pyrimidinyl]-1,2-benzisothiazol-3-yl}-p-tolyl}oxy}-, 3-decynyl ester]	0.0	0.0	0.0	0.0	9.0	9.0	9.0	9.0	5.5	6.5	8.0	9.0	0.0	0.0	0.0	0.0	0.0	0.0	0.0	2.0	herbicidal effect rating ORYSAT ([6]; Rate 0.0320 kg/ha): 2.5; herbicidal effect rating ORYSAT ([6]; Rate 0.0620 kg/ha): 4.0; herbicidal effect rating ORYSAT ([6]; Rate 0.1250 kg/ha): 4.0; herbicidal effect rating ORYSAT ([6]; Rate 0.2500 kg/ha): 4.5
COCCCOCCCOC(=O)COc1ccc(C)cc1-c1nsc2ccc(-n3c(=O)cc(C(F)(F)F)n(C)c3=O)cc12 [Example 523, Acetic acid, {{2-{5-[3,6-dihydro-3-methyl-2,6-dioxo-4-(trifluoromethyl)-1(2H)-pyrimidinyl]-1,2-benzisothiazol-3-yl}-p-tolyl}oxy}-, 3-(3-methoxypropoxy)propyl ester]	0.0	0.0	0.0	0.0	8.0	9.0	9.0	9.0	6.0	8.0	8.0	9.0	0.0	0.0	2.0	9.0	0.0	2.0	4.0	8.0	herbicidal effect rating ORYSAT ([6]; Rate 0.0320 kg/ha): 4.5; herbicidal effect rating ORYSAT ([6]; Rate 0.0620 kg/ha): 4.5; herbicidal effect rating ORYSAT ([6]; Rate 0.1250 kg/ha): 5.5; herbicidal effect rating ORYSAT ([6]; Rate 0.2500 kg/ha): 7.0
Cc1ccc(OCC(=O)OCC(C)(C)Cc2ccccc2)c(-c2nsc3ccc(-n4c(=O)cc(C(F)(F)F)n(C)c4=O)cc23)c1 [Example 527, Acetic acid, {{2-{5-[3,6-dihydro-3-methyl-2,6-dioxo-4-(trifluoromethyl)-1(2H)-pyrimidinyl)-1,2-benzisothiazol-3-yl}-p-tolyl}oxy}-, 2,2-dimethyl-3-phenylpropyl ester]	0.0	0.0	0.0	0.0	9.0	9.0	9.0	9.0	3.0	8.0	9.0	9.0	0.0	0.0	0.0	0.0	2.0	2.0	4.0	4.0	herbicidal effect rating ORYSAT ([6]; Rate 0.0320 kg/ha): 2.0; herbicidal effect rating ORYSAT ([6]; Rate 0.0620 kg/ha): 2.5; herbicidal effect rating ORYSAT ([6]; Rate 0.1250 kg/ha): 2.5; herbicidal effect rating ORYSAT ([6]; Rate 0.2500 kg/ha): 4.0
